Measurements published in PubChem BioAssay (NCI).
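Test compounds were applied to cells in 96-well plates for 48 hours at 5 doses. The concentration for 50% growth inhibition is given as GI50. TGI denotes the concentration required for complete inhibition of growth.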

Assays:
Test in all cases: growth of human tumour cells (NCI), 48 h
KM12 colon = system: KM12 colon
SN12C renal = system: SN12C renal
EKVX NSCLC = system: EKVX NSCLC
SNB-19 CNS = system: SNB-19 CNS
MCF7 breast = system: MCF7 breast
NCI-H23 lung = system: NCI-H23 lung
U251 CNS = system: U251 CNS
DU-145 prostate = system: DU-145 prostate
MALME-3M melanoma = system: MALME-3M melanoma
OVCAR-8 ovarian = system: OVCAR-8 ovarian

SMILES | GI50 (KM12 colon) | TGI (KM12 colon) | GI50 (SN12C renal) | TGI (SN12C renal) | GI50 (EKVX NSCLC) | TGI (EKVX NSCLC) | GI50 (SNB-19 CNS) | TGI (SNB-19 CNS) | GI50 (MCF7 breast) | TGI (MCF7 breast) | GI50 (NCI-H23 lung) | TGI (NCI-H23 lung) | GI50 (U251 CNS) | TGI (U251 CNS) | GI50 (DU-145 prostate) | TGI (DU-145 prostate) | GI50 (MALME-3M melanoma) | TGI (MALME-3M melanoma) | GI50 (OVCAR-8 ovarian) | TGI (OVCAR-8 ovarian)
c1ccc(-c2n(Cc3ccc4ccccc4n3)cc[n+]2Cc2ccc3ccccc3c2)cc1 | 0.823 µM | 2.42 µM | 1.44 µM | 4.36 µM | 2.33 µM | 12.8 µM | 0.865 µM | 3.54 µM | 1.21 µM | 3.43 µM | 0.731 µM | 4.87 µM | 0.923 µM | 3.25 µM | 2.7 µM | 11.3 µM | 0.81 µM | 2.78 µM | 1.63 µM | 4.4 µM
C=C1C[C@H](O)[C@H](Br)C(C)(C)[C@@]12CCC(C)=C(Cl)C2 | 0.311 µM | 2.11 µM | 0.416 µM | 6.61 µM | 0.0371 µM | 1.37 µM | 0.683 µM | 14.1 µM | 0.275 µM | 1.97 µM | 0.173 µM | 2.99 µM | 0.367 µM | 12.2 µM | 0.276 µM | 3.25 µM | 0.31 µM | 2.3 µM | 0.416 µM | 15.3 µM
CC[C@@H](c1ccc(O)c(O)c1)[C@@H](CC)c1ccc(O)c(O)c1 | 18.5 µM | 35.1 µM | 19.3 µM | 41.3 µM | 13.4 µM | 29.4 µM | 40.4 µM | > 100 µM | 34.9 µM | > 100 µM | 14.2 µM | 31.8 µM | 15.8 µM | 37.8 µM | 12.9 µM | 26.2 µM | 3.91 µM | 19.8 µM | 25.6 µM | > 100 µM
COC(=O)[C@]12CC[C@@H](C)[C@H](C)[C@@H]1C1=CC[C@@H]3[C@@]4(C)C[C@@H](O)[C@H](O)[C@@](C)(CO)[C@@H]4[C@H](O)C[C@@]3(C)[C@]1(C)CC2 | 12.3 µM | 26.4 µM | 14.5 µM | 30.6 µM | 13.4 µM | 31.4 µM | 13.2 µM | 38.9 µM | 12.1 µM | 41 µM | 16.8 µM | 36.6 µM | 17.2 µM | 40.9 µM | 16.4 µM | 31.8 µM | 13 µM | 32 µM | 17.7 µM | 41.1 µM
COC(=O)c1cc2oc(/C=C3/SC(=S)N(NC(C)=O)C3=O)cc2n1C | 26.4 µM | > 100 µM | 21.9 µM | 60.5 µM | 11.3 µM | 40.5 µM | 31.6 µM | > 100 µM | 11.6 µM | > 100 µM | 16.6 µM | 50.1 µM | 16 µM | 45 µM | 8.76 µM | 25.4 µM | 10.8 µM | 52 µM | 23.1 µM | 99.1 µM
COc1ccc(CN2C(=O)C(Cl)=C(Nc3cccc(C(F)(F)F)c3)C2=O)cc1 | 7.83 µM | 25.6 µM | 12.4 µM | 30.8 µM | 8.34 µM | 68.7 µM | 5.09 µM | 63.5 µM | 2.7 µM | 17.2 µM | 8.08 µM | 42.4 µM | 2.75 µM | 17 µM | 8.19 µM | 21.6 µM | 2.99 µM | 22.7 µM | 7.65 µM | 30.8 µM
COc1cc(-c2nc3sccn3c2-c2ccnc(NCCNS(=O)(=O)c3ccc(F)cc3)n2)ccc1F | 1.9 µM | > 100 µM | 1.89 µM | > 100 µM | 3.4 µM | > 100 µM | 5.33 µM | > 100 µM | 2 µM | > 100 µM | 2.96 µM | > 100 µM | 4.23 µM | > 100 µM | 2.42 µM | > 100 µM | 2.07 µM | 7.38 µM | 2.12 µM | > 100 µM
c1ccc(Nc2ncc(-c3ccccc3)o2)cc1 | 10.7 µM | > 25 µM | > 25 µM | > 25 µM | > 25 µM | > 25 µM | > 25 µM | > 25 µM | 12.4 µM | > 25 µM | > 25 µM | > 25 µM | > 25 µM | > 25 µM | > 25 µM | > 25 µM | > 25 µM | > 25 µM | > 25 µM | > 25 µM
CC1(C)[C@@H](NOCCCN)CC[C@]2(C)[C@H]3C(=O)C=C4[C@@H]5C[C@](C)(C(=O)O)CC[C@]5(C)CC[C@@]4(C)[C@]3(C)CC[C@@H]12 | 3.27 µM | 12.6 µM | 4.6 µM | 19.5 µM | 14 µM | 44.8 µM | 13.5 µM | 43.7 µM | 4.09 µM | 17.1 µM | 10.7 µM | 64.7 µM | 4.49 µM | 25.4 µM | 4.63 µM | 15.4 µM | 4.56 µM | 16.9 µM | 6.18 µM | 28.7 µM
